This is an account of results in patent publication US8815831B2, “Treatment of Acinetobacter with alginate oligomers and antibiotics” (priority 2009, dated 2014).

For test [1], the system named is Staphylococcus aureus NCTC 6571 MIC CONTROL STRAIN (Oxford Staph.). The test can be described thus: Minimum Inhibitory Concentration assay (96-well, CAMHB), Example 1. The settings on record: S. Aur. In kind it is cell-based.
Another test deals with Acinetobacter strains. In words: MIC assays of Example 3, Tables 3 and 4 taken together. In kind it is cell-based, Acinetobacter baumannii and Acinetobacter Iwoffii. The settings on record: in one Acinetobacter strain or another. As to the method: (§1) MIC assays as described in Example 1 were conducted using the following Acinetobacter strains, antibiotics and concentrations of OligoCF-5/20 as described in Tables 3 and 4.
(§2) • V19* 7789 Acinetobacter baumannii • V20* 8065 Acinetobacter Iwoffii MDR Strains • V4* MDR ACB (Libya) Acinetobacter baumannii • V9* (Egypt) Acinetobacter baumannii • V10* (Egypt) Acinetobacter Iwoffii • V22* 6056 Acinetobacter Iwoffii
Further MIC assays were conducted with the various strains and antibiotics recited in Table 4 using the following protocol.

Test [2] has as its system Multidrug resistant Acinetobacter baumannii isolated from a source in Libya. In words: Minimum Inhibitory Concentration assay (96-well, CAMHB), Examples 1 and 2.
Procedure: Antibiotics were diluted in cation-adjusted Mueller-Hinton broth (CAMHB) or CAMHB with G-fragments (Oligo CF-5/20 90-95% G residues) at 2%, 6% or 10%.
Bacterial cultures at 0.5 McFarland standard were diluted ten-fold in CAMHB and 5 μl added to the microtiter plates containing the antibiotic serial dilutions. Plates were wrapped in parafilm and incubated at 37° C. for 16-20 hours. MIC values for each antibiotic were determined as the lowest concentration at which there was no visible growth.
In test [3] the test system is Acinetobacter baumannii strains V9, V19. The test can be described thus: MIC assays as described in Example 1, Example 3 (Table 3). In kind it is cell-based. The settings on record: strain V19. Here is the method:
as §1, §2

[4] abbreviates: +2% G (G-fragments Oligo CF-5/20).
Setting [5] is: +6% G (G-fragments Oligo CF-5/20).
[6] abbreviates: +10% G (G-fragments Oligo CF-5/20).
The mark [7] stands for this setting: A. bau, +2% G (G-fragments Oligo CF-5/20).
Setting [8] is: A. bau, +6% G (G-fragments Oligo CF-5/20).
[9] abbreviates: A. bau, +10% G (G-fragments Oligo CF-5/20).

The structures appear in SMILES notation.

For the molecule `CC[C@H]1OC(=O)[C@H](C)[C@@H](O[C@H]2C[C@@](C)(OC)[C@@H](O)[C@H](C)O2)[C@H](C)[C@@H](O[C@@H]2O[C@H](C)C[C@H](N(C)C)[C@H]2O)[C@](C)(O)C[C@@H](C)CN(C)[C@H](C)[C@@H](O)[C@]1(C)O` [azithromycin], the “MIC value, Ceftazidime with azithromycin at 4 μg/ml” value in test [1] (0 G (no G-fragments)), in test [1] (setting [4]), in test [1] (setting [5]), in test [1] (setting [6]), in test [2] (setting [7]) and in test [2] (setting [8]) was below 4 μg/ml Az in each case. Moreover, in test [2] (setting [9]), the “MIC value, Ceftazidime with azithromycin at 4 μg/ml” value is given as below 4 μg/ml Az. For the same molecule, the “MIC value, Ceftazidime with azithromycin at 8 μg/ml” value in test [1] (0 G (no G-fragments)), in test [1] (setting [4]), in test [1] (setting [5]), in test [1] (setting [6]), in test [2] (setting [7]) and in test [2] (setting [8]) was below 8 μg/ml Az each time. Also, the “MIC value, Ceftazidime with azithromycin at 8 μg/ml” value in test [2] (setting [9]) is recorded as below 8 μg/ml Az. In addition, the “MIC value, Ciprofloxacin with azithromycin at 4 μg/ml” value in test [1] (0 G (no G-fragments)), in test [1] (setting [4]), in test [1] (setting [5]), in test [1] (setting [6]), in test [2] (setting [8]) and in test [2] (setting [9]) was below 4 μg/ml Az in each case. Further, the “MIC value, Ciprofloxacin with azithromycin at 8 μg/ml” value in test [1] (0 G (no G-fragments)), in test [1] (setting [4]), in test [1] (setting [5]), in test [1] (setting [6]), in test [2] (setting [7]) and in test [2] (setting [8]) was below 8 μg/ml Az throughout. The “MIC value, Ciprofloxacin with azithromycin at 8 μg/ml” value in test [2] (setting [9]) is recorded as below 8 μg/ml Az. Also, the “effect of increasing concentrations of OligoCF-5/20 (0-10%) on MIC values (Tables 3 and 4)” value in the test with Acinetobacter strains is “decreases MIC values”. Also, the “inhibition of growth by azithromycin combined with G-fragments” value in test [2] (4 μg/ml azithromycin and 2% or more G-fragments) was “completely inhibited”. Further, in test [2] (A. bau, +2% G (G-fragments Oligo CF-5/20), together with 64 Cpr), the “MIC value, Ciprofloxacin with azithromycin at 4 μg/ml: azithromycin part of the inhibitory combination” value came out at 4 µg/mL. In addition, in test [2] (Acinetobacter organism, azithromycin 8 or 4 μg/ml), the “effect of OligoCF-5/20 on the MIC value for azithromycin” value is recorded as “greatly reduces”. For the same molecule, the “inhibition of growth by azithromycin in the absence of G-fragments” value in test [2] (azithromycin at 4 μg/ml and at 8 μg/ml, no G-fragments) was “not capable of inhibiting growth”.

In the case of `C[C@@H](O)[C@H]1C(=O)N2C(C(=O)O)=C(SCCN=CN)C[C@H]12` [imipenem], the “effect of increasing concentrations of OligoCF-5/20 on MIC values (Table 3)” value in test [3] is reported as “no effect”.

For the molecule `CC[C@H]1OC(=O)[C@H](C)[C@@H](O[C@H]2C[C@@](C)(OC)[C@@H](O)[C@H](C)O2)[C@H](C)[C@@H](O[C@@H]2O[C@H](C)C[C@H](N(C)C)[C@H]2O)[C@](C)(O)C[C@@H](C)/C(=N\OCOCCOC)[C@H](C)[C@@H](O)[C@]1(C)O` [roxithromycin], in the test with Acinetobacter strains, the “effect of increasing concentrations of OligoCF-5/20 (0-10%) on MIC values (Tables 3 and 4)” value is on record as “decreases MIC values”.
